According to patent US8895599B2, “Lipoprotein lipase-activating compositions comprising benzene derivates” (Otsuka Pharmaceutical Factory, Inc., priority 2008, dated 2014):

What was measured:
[1] = Anti-obesity test using AKR mice (high-fat feed); type: in vivo; conditions: 1 mg per gram of feed in high-fat feed, 7 weeks, AKR/J mice, relative to high-fat feed control group
Source text: Anti-Obesity Test Using AKR Mice
Furthermore, this test enables the evaluation of therapeutic effects on diabetes. That is, it is reported that insulinemia can be observed in AKR/J mice when they are fed with a high-fat diet (see Am. J. Physiol. 266 (5 Pt 2), May 1994: R1423-8). It is thus known that insulinemia is strongly associated with diabetes (see, for example, J. Cardiovasc. Nurs. 16 (2), January 2002: 17-23). Therefore, this test can verify the therapeutic effects of the compounds of the present invention, used as test compounds, on diabetes.
For rat feed, powdered CRF-1 (Charles River Formula 1, manufactured by Oriental Yeast, Co., Ltd.) was used as normal feed. As high-fat feed, that prepared by blending CRF-1 with 18% safflower oil (Oriental Yeast, Co., Ltd.) was used.
Test substances were blended with the high-fat feed in an amount of 1 mg per gram of CRF-1.
AKR/J mice (from CLEA Japan, Inc.) were purchased at the age of 4 weeks. They were roughly divided into 2 groups according to body weight when the mice reached 5 weeks old. During this period, all mice were given the normal feed.
Subsequently, the mice of one group (8 mice) continued to be fed with the normal feed (normal feed group). The mice of the other group (8×(the number of the test substances+1) mice) were given the high-fat feed (high-fat feed group).
The body weight of the mice of each group was measured daily. […] These mice were further reared for 7 weeks (“test substances+high-fat feed groups”; n=8 per type of test substance). Specifically, the administration of the test substances was continued for 7 weeks. A group of mice to which high-fat feed containing no test substance was continued to be given was used as a control (high-fat feed control group; n=8).
Four hours after the feeding on the last day of the 7-week test (the last day of the test), the body weight of the mice of the “test substances+high fat feed groups” was measured. Blood was collected from the abdominal aorta of the mice using a heparinized syringe, and the leptin and insulin levels in the plasma were measured using an Elisa kit (produced by Morinaga). The mice of the other groups (normal feed group and high-fat feed control group) were reared till the last day of the test as above, and 4 hours after the last feeding on the last day of the test the measurements were performed according to the same procedures.
The average values of the test results (body weight, leptin level, and insulin level) of the test substances+high-fat feed groups to which the compounds prepared in Examples (Examples 10 and 58) were used as test substances (hereinbelow referred to as the “Example Compound 10-mixed high-fat feed group” and “Example Compound 58-mixed high-fat feed group”) were compared with the respective average values (standard values) of the results obtained from the mice of the high-fat control group to obtain the variations (differences). The differences were expressed as percentages in relation to the standard values. The values thus calculated were referred to as “weight change (%)”, “leptin level change (%)”, and “insulin level change (%)”. In the table below, the symbols “−” (minus) indicate that the differences are negative relative to the standard values.

melting point: 141 to 143 °C
Compound: COc1cc(-c2cn3ccccc3n2)ccc1OCc1ccc(Cl)cc1 [Example 10]
Weight Change (%) [1]: −15%
Insulin level change (%) ([1]; plasma): −54%
Leptin level change (%) ([1]; plasma): −68%
